Measured values reported in patent publication US9005581B2, “Modified pyrazine derivatives and uses thereof” (MediBeacon, LLC, priority 2008, dated 2015).
Marks after values point to notes of the source that are not given here.

Columns and labels:
[1] = Urine elimination studies; type: in vivo, Sprague-Dawley rats; conditions: rat, 1 mL of 2 mM in PBS by tail vein injection, mean ± SEM (n)
Description: Rat urine elimination studies are conducted in either conscious or anesthetized Sprague-Dawley rats. The test compound (1 mL, 2 mM in PBS) is administered by tail vein injection into conscious, restrained rats, with subsequent collection of urine at the time points of 2, 4 and 6 h post injection. The metabolic cages are washed with water to maximize the recovery of urine discharged at each time point. Alternatively, rats are anesthetized with 100 mg/kg Inactin intraperitoneally, a trachea tube is inserted to maintain adequate respiration, and 1 mL of test compound is injected into the lateral tail vein. Rats are placed on 37° C. heating pad during the entire experiment. At 6 h post injection, the abdomen is opened, and the urine is removed from the bladder using a 21 gauge needle and a 3 cc syringe. Quantitation of each compound in urine is performed via HPLC analysis using a set of external calibration standards and fluorescence detection. The percent recovery of compound in urine at each time point is calculated based on the balance of mass.

[2] = Invasive pharmacokinetic studies (plasma concentration); type: in vivo, Sprague-Dawley rats; conditions: rat plasma, 1 mL of 2 mM solution i.v., mean ± SEM (n); for clearance: male, Sprague-Dawley, iv, 1 mL of a 2 mM solution, read-out: Pharmacokinetics Clearance
Description: (§1) Male Sprague-Dawley rats (330-380 g) are anesthetized by Inactin (I.P.). Rats are surgically instrumented with a trachea tube (PE-190) to facilitate breathing and femoral artery and vein catheters (PE-50 filled with 20 units/mL heparinized saline) for blood sampling and drug administration respectively. After administration of 1 mL of a 2 mM solution of agent, approximately 200 μL blood is sampled and placed into a heparinized tube (Microtainer Brand Tube w/Lithium Heparin, BD 365971) at 0, 1, 6, 12, 18, 30, 45, 60, 90, 120 min. The concentration of compound in each centrifuged plasma sample is determined via HPLC analysis using a set of external calibration standards and fluorescence detection. The resulting pharmacokinetic parameters of the compound are analyzed using WinNonLin pharmacokinetic modeling software (Pharsight, Mountain View, Calif.). This method is used to detect renally excretable compounds of the invention and FIG. 8B provides a plot illustrating invasive PK (plasma concentration) as a function of time following delivery of a renally excretable compound.

[3] = Photophysical properties (fluorescence excitation/emission in PBS); type: physicochemical; conditions: 10 μM solution in PBS
Description: In general, renally excretable compounds are dissolved in PBS buffer to form a 2 mM stock solution. The UV absorbance properties are determined on a 100 μM solution in PBS using a UV-3101PC UV-Vis-NIR Scanning spectrophotometer system from Shimadzu. The fluorescence properties (λex, λem, and CPS at λem) are determined on a 10 μM solution in PBS using a Fluorolog-3 spectrofluorometer system from Jobin Yvon Horiba. The percent plasma protein binding is determined on a 20 μM compound solution in rat plasma incubated at 37° C. for 1 h. The separation of free from bound is made using an Amicon Centrifree YM-30 device (Regenerated Cellulose 30,000 MWCO) and a Z400K Refrigerated Universal Centrifuge from Hermle. The concentration of protein-free is determined via HPLC analysis using a set of external calibration standards and fluorescence detection.

[4] = Non-invasive optical pharmacokinetic studies (fluorescence at the ear); type: in vivo, Sprague-Dawley rats; conditions: rat ear fluorescence, 1 mL of 2 mM solution into tail vein; mean ± SEM (n)
Description: Male Sprague-Dawley rats (330-380 g) are anesthetized by Inactin (I.P.) or 2% Isoflurane gas anesthesia delivered by a small rodent gas anesthesia machine (RC2, Vetequip, Pleasanton, Calif.). The animals are placed on a heated board where temperature is maintained between 36-38° C. One ear lobe is glued flat to a glass slide positioned approximately 2 mm beneath a fiber optic bundle for recording fluorescence from a test compound passing through the ear. After a 100 second baseline recording, 1 mL of a 2 mM solution is injected into the tail-vein of the rat and the fluorescence signal corresponding to plasma and tissue distribution and subsequent renal clearance of the compound is monitored at the ear. The pharmacokinetic parameters of the compounds are analyzed using WinNonLin pharmacokinetic modeling software (Pharsight, Mountain View, Calif.) and Microsoft (Redmond, Wash.) Excel. This method is used to detect renally excretable compounds of the invention and FIG. 8A provides a plot illustrating non-invasive in vivo fluorescence as a function of time following delivery of a renally excretable compound.
A nominal 473 nm solid state laser source (100) is employed (Power Technology model LDCU12/7314). The laser source is directed into one leg (110) of a silica bifurcated fiber optic bundle (120) (Oriel #77565). The common end of this bifurcated bundle (130) is placed approximately 2 mm from the rat ear (140). The second leg of the bifurcated fiber optic bundle (150) is fitted with a collimating beam probe (160) (Oriel #77644). A long pass filter (170) (Semrock LP02-488RS-25) and narrow band interference filter (180) (Semrock FF01-593/40-25) are placed in front of a photomultiplier tube (190) (Hamamatsu photosensor module H7827-011).
A chopper (200) (Stanford Research Systems model SR540) is placed after the laser and before the launch into the bifurcated cable. The output of the photosensor is connected to a lock-in amplifier (210) (Stanford Research Systems model SR830). The lock-in output is digitized (220) (National Instruments NI-USB-6211) and the digitized data is acquired by computer using LabVIEW® data acquisition software (230).

[5] = Probenecid inhibition studies (invasive pharmacokinetics after probenecid); type: in vivo, Sprague-Dawley rats; conditions: rat plasma, 70 mg/kg Probenecid 10 min prior to test compound, values in brackets, mean ± SEM (n)
Description: as §1
Six male Sprague-Dawley rats are treated in the same manner as described above in the invasive pharmacokinetic studies. These 6 rats receive 70 mg/kg Probenecid (Sigma-Aldrich; St. Louis, Mo.) 10 min prior to the test compound; this administration is flushed with 0.2 ml NaCl.

| Structure (SMILES) | Percent found in Urine (6 hrs) [1] | clearance [2] [mL/min] | Pharmacokinetics T1/2β [2] | Photophysical Properties Emission λmax [3] [nm] | Photophysical Properties Excitation λmax [3] [nm] | Tissue Clearance (Optical) T1/2β [4] | clearance ([5]; male, Sprague-Dawley, iv, with probenecid 70 mg/kg, 10 min prior to the test compound, read-out: Pharmacokinetics Clearance, probenecid challenge experiment) [mL/min] | Pharmacokinetics T1/2β, probenecid challenge experiment [5] |
| --- | --- | --- | --- | --- | --- | --- | --- | --- |
| COCCOCCOCCOCCOCCOCCOCCOCCOCCOCCOCCOCCCNc1nc(C(=O)NCCOCCOCCOCCOCCOCCOCCOCCOCCOCCOCCOCCOCCOCCOCCOCCOCCOCCOCCOCCOCCOCCOCCOCCOC)c(NCCCOCCOCCOCCOCCOCCOCCOCCOCCOCCOCCOCCOC)nc1C(=O)NCCOCCOCCOCCOCCOCCOCCOCCOCCOCCOCCOCCOCCOCCOCCOCCOCCOCCOCCOCCOCCOCCOCCOCCOC [Compound 3, 3,6-Bis(2,5,8,11,14,17,20,23,26,29,32,35-dodecaoxaoctatriacontan-38-ylamino)-N^2,N^5-di(2,5,8,11,14,17,20,23,26,29,32,35,38,41,44,47,50,53,56,59,62,65,68,71-tetracosaoxatriheptacontan-73-yl)pyrazine-2,5-dicarboxamide] | 89 ± 2 (3) Percent | 2.5 ± 0.2 | 30.5 ± 3.2 (3) min | 602 | 499 | 20.4 ± 2.0 (4) min | – | – |
| COCCOCCOCCOCCOCCOCCOCCOCCOCCOCCOCCOCCOCCOCCOCCOCCOCCOCCOCCOCCOCCOCCOCCOCCCNc1nc(C(=O)NCCOCCOCCOCCOCCOCCOCCOCCOCCOCCOCCOCCOCCOCCOCCOCCOCCOCCOCCOCCOCCOCCOCCOCCOC)c(NCCCOCCOCCOCCOCCOCCOCCOCCOCCOCCOCCOCCOCCOCCOCCOCCOCCOCCOCCOCCOCCOCCOCCOCCOC)nc1C(=O)NCCOCCOCCOCCOCCOCCOCCOCCOCCOCCOCCOCCOCCOCCOCCOCCOCCOCCOCCOCCOCCOCCOCCOCCOC [Compound 5, 3,6-bis(2,5,8,11,14,17,20,23,26,29,32,35,38,41,44,47,50,53,56,59,62,65,68,71-tetracosaoxatetraheptacontan-74-ylamino)-N^2,N^5-di(2,5,8,11,14,17,20,23,26,29,32,35,38,41,44,47,50,53,56,59,62,65,68,71-tetracosaoxatriheptacontan-73-yl)pyrazine-2,5-dicarboxamide] | 86 ± 7 (3) Percent | – | – | 603 | 495 | 17.6 ± 0.9 (4) min | – | – |
| COCCOCCOCCOCCOCCOCCOCCOCCCNc1nc(C(=O)N[C@H](CO)C(=O)O)c(NCCCOCCOCCOCCOCCOCCOCCOCCOC)nc1C(=O)N[C@H](CO)C(=O)O [Compound 8, 3,6-Bis(2,5,8,11,14,17,20,23-octaoxahexacosan-26-ylamino)-N^2,N^5-bis[(R)-1-carboxy-2-hydroxyethyl]pyrazine-2,5-dicarboxamide] | 61 ± 7 (3) Percent | – | – | – | – | – | – | – |
| COCCOCCOCCOCCCNc1nc(C(=O)NCC(O)CO)c(NCCCOCCOCCOCCOC)nc1C(=O)NCC(O)CO (stereo not shown) [Compound 13, 3,6-Bis(2,5,8,11-tetraoxatetradecan-14-ylamino)-N^2,N^5-bis(2,3-dihydroxypropyl)pyrazine-2,5-dicarboxamide] | 29 ± 2 (3) Percent | – | – | – | – | – | – | – |
| COCCOCCOCCOCCCNc1nc(C(=O)NCCOCCOCCOCCOCCOCCOCCOCCOCCOCCOCCOCCOC)c(NCCCOCCOCCOCCOC)nc1C(=O)NCCOCCOCCOCCOCCOCCOCCOCCOCCOCCOCCOCCOC [Compound 15, 3,6-Bis(2,5,8,11-tetraoxatetradecan-14-ylamino)-N^2,N^5-di(2,5,8,11,14,17,20,23,26,29,32,35-dodecaoxaheptatriacontan-37-yl)pyrazine-2,5-dicarboxamide] | 86 ± 1 (3) Percent | – | – | 603 | 492 | – | – | – |

Further lines, results first:

| Percent found in Urine (6 hrs) [1] | clearance [2] [mL/min] | Pharmacokinetics T1/2β [2] | Photophysical Properties Emission λmax [3] [nm] | Photophysical Properties Excitation λmax [3] [nm] | Tissue Clearance (Optical) T1/2β [4] | clearance ([5]; male, Sprague-Dawley, iv, with probenecid 70 mg/kg, 10 min prior to the test compound, read-out: Pharmacokinetics Clearance, probenecid challenge experiment) [mL/min] | Pharmacokinetics T1/2β, probenecid challenge experiment [5] | Structure (SMILES) |
| --- | --- | --- | --- | --- | --- | --- | --- | --- |
| 97 ± 0.4 (3)^b Percent | 3.1 ± 0.2 | 18.8 ± 0.6 (3) min | 605 | 500 | 19.9 ± 2.4 (3) min | 3.3 | [18.0 ± 0.3 (3)]^c min | COCCOCCOCCOCCOCCOCCOCCOCCOCCOCCOCCOCCCNc1nc(C(=O)NCCOCCOCCOCCOCCOCCOCCOCCOCCOCCOCCOCCOC)c(NCCCOCCOCCOCCOCCOCCOCCOCCOCCOCCOCCOCCOC)nc1C(=O)NCCOCCOCCOCCOCCOCCOCCOCCOCCOCCOCCOCCOC [Compound 1, 3,6-Bis(2,5,8,11,14,17,20,23,26,29,32,35-dodecaoxaoctatriacontan-38-ylamino)-N^2,N^5-di(2,5,8,11,14,17,20,23,26,29,32,35-dodecaoxaheptatriacontan-37-yl)pyrazine-2,5-dicarboxamide] |
| 92 ± 4 (3) Percent | – | – | 603 | 498 | 19.1 ± 0.8 (4) min | – | – | COCCOCCOCCOCCOCCOCCOCCOCCCNc1nc(C(=O)NCCOCCOCCOCCOCCOCCOCCOCCOCCOCCOCCOCCOCCOCCOCCOCCOCCOCCOCCOCCOCCOCCOCCOCCOC)c(NCCCOCCOCCOCCOCCOCCOCCOCCOC)nc1C(=O)NCCOCCOCCOCCOCCOCCOCCOCCOCCOCCOCCOCCOCCOCCOCCOCCOCCOCCOCCOCCOCCOCCOCCOCCOC [Compound 6, 3,6-bis(2,5,8,11,14,17,20,23-octaoxahexacosan-26-ylamino)-N^2,N^5-di(2,5,8,11,14,17,20,23,26,29,32,35,38,41,44,47,50,53,56,59,62,65,68,71-tetracosaoxatriheptacontan-73-yl)pyrazine-2,5-dicarboxamide] |
| 97 ± 2 (3) Percent | – | – | 602 | 494 | 14.6 ± 1.1 (4) min | – | – | COCCOCCOCCOCCCNc1nc(C(=O)NCCOCCOCCOCCOCCOCCOCCOCCOCCOCCOCCOCCOCCOCCOCCOCCOCCOCCOCCOCCOCCOCCOCCOCCOC)c(NCCCOCCOCCOCCOC)nc1C(=O)NCCOCCOCCOCCOCCOCCOCCOCCOCCOCCOCCOCCOCCOCCOCCOCCOCCOCCOCCOCCOCCOCCOCCOCCOC [Compound 7, 3,6-Bis(2,5,8,11-tetraoxatetradecan-14-ylamino)-N^2,N^5-di(2,5,8,11,14,17,20,23,26,29,32,35,38,41,44,47,50,53,56,59,62,65,68,71-tetracosaoxatriheptacontan-73-yl)pyrazine-2,5-dicarboxamide] |
